# Source: ChEMBL document CHEMBL1201862, “PubChem BioAssay data set” (2004)
#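 How tested: cells in 96-well plates exposed to compound for 48 hours at five concentrations. Abbreviation: GI50, concentration required for 50% inhibition of growth.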 Active and inactive are the calls of the source. No stated cut-off is given here; in the data, active = GI50 up to about 1.1 µM and inactive = higher.
# How the values were obtained:
# Assay in all cases: DTP human tumour cell line panel, 48 h
# MDA-N = test system: MDA-N
# NCI-H226 = test system: NCI-H226
# MCF7 = test system: MCF7
# Hs-578T = test system: Hs-578T
# HOP-92 = test system: HOP-92
# UO-31 = test system: UO-31
# MOLT-4 = test system: MOLT-4
# SK-MEL-5 = test system: SK-MEL-5
# SW-620 = test system: SW-620
# OVCAR-5 = test system: OVCAR-5
# ACHN = test system: ACHN
# T47D = test system: T47D
# EKVX = test system: EKVX
# A498 = test system: A498
# DU-145 = test system: DU-145
# HCT-116 = test system: HCT-116
# SN12C = test system: SN12C
# HT-29 = test system: HT-29
# SF-295 = test system: SF-295
# RXF 393 = test system: RXF 393
Compound,GI50 (MDA-N),GI50 (NCI-H226),GI50 (MCF7),GI50 (Hs-578T),GI50 (HOP-92),GI50 (UO-31),GI50 (MOLT-4),GI50 (SK-MEL-5),GI50 (SW-620),GI50 (OVCAR-5),GI50 (ACHN),GI50 (T47D),GI50 (EKVX),GI50 (A498),GI50 (DU-145),GI50 (HCT-116),GI50 (SN12C),GI50 (HT-29),GI50 (SF-295),GI50 (RXF 393)
C/C(=N\NC(=S)Nc1ccccc1)c1nc2cccnc2[nH]1,5.65 µM (inactive),2.59 µM (inactive),0.338 µM (active),14 µM (inactive),12.9 µM (inactive),1.38 µM (inactive),0.706 µM (active),2.69 µM (inactive),4.97 µM (inactive),4.79 µM (inactive),1.44 µM (inactive),0.193 µM (active),0.649 µM (active),8.17 µM (inactive),2.84 µM (inactive),1.63 µM (inactive),4.33 µM (inactive),0.826 µM (active),3.46 µM (inactive),–
N#Cc1c(N2CCN(c3ccc([N+](=O)[O-])cc3)CC2)[n+]([O-])c2ccc(-c3ccc([N+](=O)[O-])cc3)cc2[n+]1[O-],31.8 µM (inactive),33 µM (inactive),> 100 µM (inactive),> 75.2 µM (inactive),–,8.59 µM (inactive),–,4.18 µM (inactive),35.2 µM (inactive),30.7 µM (inactive),> 49 µM (inactive),3.58 µM (inactive),7.28 µM (inactive),> 100 µM (inactive),21.2 µM (inactive),4.56 µM (inactive),–,> 67.6 µM (inactive),8.51 µM (inactive),–
CCOC(=O)c1ccc(Nc2nc3ccccc3nc2C(=O)OCC)cc1,> 100 µM (inactive),–,> 100 µM (inactive),59.6 µM (inactive),43.1 µM (inactive),> 100 µM (inactive),> 100 µM (inactive),> 100 µM (inactive),–,> 100 µM (inactive),> 100 µM (inactive),> 100 µM (inactive),> 100 µM (inactive),–,> 100 µM (inactive),> 100 µM (inactive),> 100 µM (inactive),> 100 µM (inactive),–,–
CC1(C)C(=O)C(C)(C)C12SSC1(S2)C(C)(C)C(=O)C1(C)C,> 100 µM (inactive),42.6 µM (inactive),> 100 µM (inactive),> 100 µM (inactive),> 100 µM (inactive),> 100 µM (inactive),71.4 µM (inactive),> 100 µM (inactive),> 100 µM (inactive),> 100 µM (inactive),> 100 µM (inactive),> 100 µM (inactive),> 100 µM (inactive),> 100 µM (inactive),> 100 µM (inactive),> 100 µM (inactive),> 100 µM (inactive),> 100 µM (inactive),> 100 µM (inactive),–
Cc1ccc(S(=O)(=O)N(CC(O)c2ccccc2)c2ccccc2F)cc1 (centres undefined),15.7 µM (inactive),20.7 µM (inactive),13 µM (inactive),16.9 µM (inactive),10.2 µM (inactive),16.2 µM (inactive),–,15.9 µM (inactive),19.6 µM (inactive),19.2 µM (inactive),20.2 µM (inactive),14.5 µM (inactive),35.6 µM (inactive),19.9 µM (inactive),16.1 µM (inactive),12.7 µM (inactive),17.8 µM (inactive),19.3 µM (inactive),17.5 µM (inactive),–
CC1C(c2cc(C(C)(C)C)c(O)c(C(C)(C)C)c2)c2cc3c(cc2OC1N1CCOCC1)OCO3 (centres undefined),26.9 µM (inactive),–,21.2 µM (inactive),3.13 µM (inactive),–,12.4 µM (inactive),> 100 µM (inactive),17.1 µM (inactive),42.2 µM (inactive),> 100 µM (inactive),7.69 µM (inactive),21.4 µM (inactive),23.9 µM (inactive),–,30.1 µM (inactive),13.7 µM (inactive),33.8 µM (inactive),19.2 µM (inactive),15.3 µM (inactive),–
COc1cccc(/C=N/C(/N=C/c2cccc(OC)c2O)c2cccc(OC)c2O)c1O,26.4 µM (inactive),–,18.9 µM (inactive),17.6 µM (inactive),31.7 µM (inactive),20.1 µM (inactive),–,15 µM (inactive),27.5 µM (inactive),22 µM (inactive),21.5 µM (inactive),15.2 µM (inactive),19.2 µM (inactive),–,18.4 µM (inactive),14.6 µM (inactive),19.2 µM (inactive),24.4 µM (inactive),23.6 µM (inactive),8.39 µM (inactive)
COc1cc([C@@H]2c3cc4c(cc3[C@@H](Nc3ccc(NC(=O)c5cc(NC(=O)c6cc([N+](=O)[O-])cn6C)cn5C)cc3)[C@H]3COC(=O)[C@H]23)OCO4)cc(OC)c1O,0.0308 µM (active),0.334 µM (active),0.047 µM (active),> 48.4 µM (inactive),0.885 µM (active),5.22 µM (inactive),< 0.0209 µM (active),0.188 µM (active),2.72 µM (inactive),> 61.4 µM (inactive),0.2 µM (active),31.1 µM (inactive),> 40.1 µM (inactive),1.35 µM (inactive),0.374 µM (active),0.149 µM (active),3.73 µM (inactive),0.355 µM (active),1.57 µM (inactive),–
